# Measurements published in paper PMC10584170, “Machine learning-based phenotypic imaging to characterise the targetable biology of Plasmodium falciparum male gametocytes for the development of transmission-blocking antimalarials” (PLOS Pathogens, 2023).
# Like-named read-outs stand apart in the source and are kept apart here.
# Key:
# [1] = test system: P. falciparum female gametocytes; experiment: P. falciparum Dual Gamete Formation Assay (PfDGFA), female readout (Pfs25-positive female gametes); assay type: cell-based, Plasmodium falciparum NF54; details: for Selectivity ratio F: HepG2 Tox50 versus female IC50; for IC50: PfDGFA, 24 h incubation with gametocytes before induction, female gamete readout, read-out: Female IC50; for HitlevelF: number of replicates with >50% inhibition in the female readout
# Procedure, shortened: (§1)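 Male and female gamete formation were quantified by microscopy image analysis following 24 h incubation of mature NF54 gametocytes with compound and activation at 28°C with xanthurenic acid.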
# HepG2 cells = experiment: HepG2 cytotoxicity counter-screen; details: cytotoxic activity against HepG2 cells
# [2] = test system: P. falciparum male gametocytes; experiment: P. falciparum Dual Gamete Formation Assay (PfDGFA), male readout (exflagellation); assay type: cell-based, Plasmodium falciparum NF54; details: for Selectivity Ratio M: HepG2 Tox50 versus male IC50; for IC50: PfDGFA, 24 h incubation with gametocytes before induction, exflagellation readout, read-out: Male IC50; for HitlevelM: number of replicates with >50% inhibition in the male readout
# Procedure, shortened: as §1
# [3] = PfDGFA at 2µM, 24h preincubation with gametocytes, average of replicates
# [4] = PfDGFA at 2µM, 24h preincubation with gametocytes, replicate R1
# [5] = PfDGFA at 2µM, 24h preincubation with gametocytes, replicate R3
# [6] = PfDGFA at 2µM, 24h preincubation with gametocytes, replicate R4
# [7] = 2µM, 24h preincubation with gametocytes prior to induction of gametogenesis, average of replicates
# [8] = 2µM, 24h preincubation with gametocytes prior to induction of gametogenesis, replicate R1
# [9] = 2µM, 24h preincubation with gametocytes prior to induction of gametogenesis, replicate R3
# [10] = 2µM, 24h preincubation with gametocytes prior to induction of gametogenesis, replicate R4
smiles,measurement,setting,value
COc1ccc2nc(-c3cc(-c4ccc(NC(=O)C(C)C)cc4)cnc3N)[nH]c2c1 [TCMDC-135322],Selectivity ratio F,[1],0.84
same,inhibition at 2 µM,"[1]; Plasmodium falciparum, PfDGFA at 2µM, 24h preincubation with gametocytes, average of replicates, read-out: Average inhibition female (%)",-9%
same,inhibition at 2 µM,"[1]; Plasmodium falciparum, PfDGFA at 2µM, 24h preincubation with gametocytes, replicate R1, read-out: % inhibition female (individual replicates) R1",-9.8%
same,inhibition at 2 µM,"[1]; Plasmodium falciparum, PfDGFA at 2µM, 24h preincubation with gametocytes, replicate R2, read-out: % inhibition female (individual replicates) R2",-5.2%
same,inhibition at 2 µM,"[1]; Plasmodium falciparum, PfDGFA at 2µM, 24h preincubation with gametocytes, replicate R3, read-out: % inhibition female (individual replicates) R3",-4.1%
same,inhibition at 2 µM,"[1]; Plasmodium falciparum, PfDGFA at 2µM, 24h preincubation with gametocytes, replicate R4, read-out: % inhibition female (individual replicates) R4",-17%
same,IC50,[1]; Plasmodium falciparum,> 10000 nM
same,HitlevelF,[1]; 2µM,0
same,Tox50,HepG2 cells,8.38 µM
same,Selectivity Ratio M,[2],19.53
same,inhibition at 2 µM,"[2]; Plasmodium falciparum, PfDGFA at 2µM, 24h preincubation with gametocytes, average of replicates, read-out: Average inhibition male (%)",72%
same,inhibition at 2 µM,"[2]; Plasmodium falciparum, PfDGFA at 2µM, 24h preincubation with gametocytes, replicate R1, read-out: % inhibition male (individual replicates) R1",76.6%
same,inhibition at 2 µM,"[2]; Plasmodium falciparum, PfDGFA at 2µM, 24h preincubation with gametocytes, replicate R2, read-out: % inhibition male (individual replicates) R2",80.3%
same,inhibition at 2 µM,"[2]; Plasmodium falciparum, PfDGFA at 2µM, 24h preincubation with gametocytes, replicate R3, read-out: % inhibition male (individual replicates) R3",78.9%
same,inhibition at 2 µM,"[2]; Plasmodium falciparum, PfDGFA at 2µM, 24h preincubation with gametocytes, replicate R4, read-out: % inhibition male (individual replicates) R4",52.3%
same,IC50,[2]; Plasmodium falciparum,430 nM
same,HitlevelM,[2]; 2µM,4
COc1ccc2nc(-c3cc(-c4ccc(NC(C)=O)cc4)cnc3N)[nH]c2c1 [TCMDC-135365],HitlevelF,"[1]; 2µM, 24h preincubation",0
same,Selectivity ratio F,[1],0.31
same,inhibition at 2 µM,"[1]; Plasmodium falciparum, 2µM, 24h preincubation with gametocytes prior to induction of gametogenesis, average of replicates, read-out: Average inhibition female (%)",-1.9%
same,inhibition at 2 µM,"[1]; Plasmodium falciparum, 2µM, 24h preincubation with gametocytes prior to induction of gametogenesis, replicate R1, read-out: % inhibition female (individual replicates) R1",-7.6%
same,inhibition at 2 µM,"[1]; Plasmodium falciparum, 2µM, 24h preincubation with gametocytes prior to induction of gametogenesis, replicate R2, read-out: % inhibition female (individual replicates) R2",14.6%
same,inhibition at 2 µM,"[1]; Plasmodium falciparum, 2µM, 24h preincubation with gametocytes prior to induction of gametogenesis, replicate R3, read-out: % inhibition female (individual replicates) R3",-10.3%
same,inhibition at 2 µM,"[1]; Plasmodium falciparum, 2µM, 24h preincubation with gametocytes prior to induction of gametogenesis, replicate R4, read-out: % inhibition female (individual replicates) R4",-4.4%
same,IC50,[1]; Plasmodium falciparum,> 10000 nM
same,Tox50,HepG2 cells,3.08 µM
same,HitlevelM,"[2]; 2µM, 24h preincubation",3
same,Selectivity Ratio M,[2],5.74
same,inhibition at 2 µM,"[2]; Plasmodium falciparum, 2µM, 24h preincubation with gametocytes prior to induction of gametogenesis, average of replicates, read-out: Average inhibition male (%)",61.3%
same,inhibition at 2 µM,"[2]; Plasmodium falciparum, 2µM, 24h preincubation with gametocytes prior to induction of gametogenesis, replicate R1, read-out: % inhibition male (individual replicates) R1",62.6%
same,inhibition at 2 µM,"[2]; Plasmodium falciparum, 2µM, 24h preincubation with gametocytes prior to induction of gametogenesis, replicate R2, read-out: % inhibition male (individual replicates) R2",72.6%
same,inhibition at 2 µM,"[2]; Plasmodium falciparum, 2µM, 24h preincubation with gametocytes prior to induction of gametogenesis, replicate R3, read-out: % inhibition male (individual replicates) R3",63.7%
same,inhibition at 2 µM,"[2]; Plasmodium falciparum, 2µM, 24h preincubation with gametocytes prior to induction of gametogenesis, replicate R4, read-out: % inhibition male (individual replicates) R4",46.2%
same,IC50,[2]; Plasmodium falciparum,540 nM
CCS(=O)(=O)Nc1ccc2c(c1)/C(=C(/Nc1ccc(CN3CCCCC3)cc1)c1ccccc1)C(=O)N2 [TCMDC-135395],Selectivity ratio F,[1],0.06
same,inhibition at 2 µM,"[1]; Plasmodium falciparum, 2µM, 24h preincubation with gametocytes, average of replicates, read-out: Average inhibition female (%)",-5.9%
same,inhibition at 2 µM,"[1]; Plasmodium falciparum, 2µM, 24h preincubation with gametocytes, replicate R1, read-out: % inhibition female (individual replicates) R1",-6.3%
same,inhibition at 2 µM,"[1]; Plasmodium falciparum, 2µM, 24h preincubation with gametocytes, replicate R2, read-out: % inhibition female (individual replicates) R2",-3.4%
same,inhibition at 2 µM,"[1]; Plasmodium falciparum, 2µM, 24h preincubation with gametocytes, replicate R3, read-out: % inhibition female (individual replicates) R3",1.2%
same,inhibition at 2 µM,"[1]; Plasmodium falciparum, 2µM, 24h preincubation with gametocytes, replicate R4, read-out: % inhibition female (individual replicates) R4",-15.3%
same,IC50,[1]; Plasmodium falciparum,> 10000 nM
same,Tox50,HepG2 cells,0.56 µM
same,Selectivity Ratio M,[2],46.97
same,inhibition at 2 µM,"[2]; Plasmodium falciparum, 2µM, 24h preincubation with gametocytes, average of replicates, read-out: Average inhibition male (%)",91.1%
same,inhibition at 2 µM,"[2]; Plasmodium falciparum, 2µM, 24h preincubation with gametocytes, replicate R1, read-out: % inhibition male (individual replicates) R1",87%
same,inhibition at 2 µM,"[2]; Plasmodium falciparum, 2µM, 24h preincubation with gametocytes, replicate R2, read-out: % inhibition male (individual replicates) R2",89.8%
same,inhibition at 2 µM,"[2]; Plasmodium falciparum, 2µM, 24h preincubation with gametocytes, replicate R3, read-out: % inhibition male (individual replicates) R3",92.4%
same,inhibition at 2 µM,"[2]; Plasmodium falciparum, 2µM, 24h preincubation with gametocytes, replicate R4, read-out: % inhibition male (individual replicates) R4",95.2%
same,IC50,[2]; Plasmodium falciparum,10 nM
COc1cc(NC(=O)c2sc(-c3ccc(Cl)cc3)cc2NC(=O)c2ccncc2)ccc1OCCN1CCCC1 [TCMDC-135398],Selectivity ratio F,[1],2.54
same,Average inhibition female (%),[1]; [3],76.4%
same,% inhibition female (individual replicates) R1,[1]; [4],76.9%
same,% inhibition female (individual replicates) R3,[1]; [5],72.6%
same,% inhibition female (individual replicates) R4,[1]; [6],86.6%
same,IC50,[1],2460 nM
same,HitlevelF,[1]; 2µM,4
same,Tox50,HepG2 cells,6.24 µM
same,Selectivity Ratio M,[2],3.15
same,Average inhibition male (%),[2]; [3],74.1%
same,% inhibition male (individual replicates) R1,[2]; [4],92.1%
same,% inhibition male (individual replicates) R3,[2]; [5],87.5%
same,% inhibition male (individual replicates) R4,[2]; [6],101.9%
same,IC50,[2],1980 nM
same,HitlevelM,[2]; 2µM,3
O=C(Nc1cccc(-c2nn3ncccc3c2-c2ccnc(Nc3cccc(-c4cnco4)c3)n2)c1)c1c(F)cccc1F [TCMDC-135550],Average inhibition female (%),[1]; [7],-4.1%
same,% inhibition female (individual replicates) R1,[1]; [8],-3.8%
same,% inhibition female (individual replicates) R3,[1]; [9],-14.6%
same,% inhibition female (individual replicates) R4,[1]; [10],0.16%
same,HitlevelF,"[1]; 2µM, 24h preincubation",0
same,Selectivity ratio F,[1],0.18
same,Tox50,HepG2 cells,1.85 µM
same,Average inhibition male (%),[2]; [7],55.8%
same,% inhibition male (individual replicates) R1,[2]; [8],81.6%
same,% inhibition male (individual replicates) R3,[2]; [9],54.6%
same,% inhibition male (individual replicates) R4,[2]; [10],6.2%
same,HitlevelM,"[2]; 2µM, 24h preincubation",3
same,Selectivity Ratio M,[2],4.7
same,IC50,[2],390 nM
